According to PubChem BioAssay (NCI):
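Exposure lasted 48 hours, with cells grown in 96-well plates and compounds tested at five concentrations. Abbreviation: GI50, concentration required for 50% inhibition of growth. TGI: total growth inhibition.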

Experiments:
Assay in all cases: NCI anticancer screen, dose series, 48 h
U251 CNS = test system: U251 CNS
CAKI-1 renal = test system: CAKI-1 renal
SK-MEL-28 melanoma = test system: SK-MEL-28 melanoma
SF-539 CNS = test system: SF-539 CNS
NCI-H23 lung = test system: NCI-H23 lung
NCI-H522 lung = test system: NCI-H522 lung
SF-295 CNS = test system: SF-295 CNS
M14 melanoma = test system: M14 melanoma
SF-268 CNS = test system: SF-268 CNS
NCI-H226 lung = test system: NCI-H226 lung
HCT-15 colon = test system: HCT-15 colon
MALME-3M melanoma = test system: MALME-3M melanoma
A549 NSCLC = test system: A549 NSCLC
OVCAR-3 ovarian = test system: OVCAR-3 ovarian
HT29 colon = test system: HT29 colon
UO-31 renal = test system: UO-31 renal
BT-549 breast = test system: BT-549 breast
HOP-62 NSCLC = test system: HOP-62 NSCLC
EKVX NSCLC = test system: EKVX NSCLC
COLO 205 colon = test system: COLO 205 colon
PC-3 prostate = test system: PC-3 prostate
HOP-92 NSCLC = test system: HOP-92 NSCLC
HCC-2998 colon = test system: HCC-2998 colon
ACHN renal = test system: ACHN renal
SK-MEL-2 melanoma = test system: SK-MEL-2 melanoma
NCI-H460 lung = test system: NCI-H460 lung
MOLT-4 leukemia = test system: MOLT-4 leukemia
OVCAR-4 ovarian = test system: OVCAR-4 ovarian
UACC-257 melanoma = test system: UACC-257 melanoma

`OCc1ccc(-c2csc(-c3ccc(CO)o3)c2)o1` was tested, and the GI50 (U251 CNS) was 29.7 µM, the TGI (U251 CNS) was greater than 100 µM and the GI50 (CAKI-1 renal) was 41.5 µM. For the same molecule, the TGI (CAKI-1 renal) was greater than 100 µM, the GI50 (SK-MEL-28 melanoma) was 34.2 µM and the TGI (SK-MEL-28 melanoma) was greater than 100 µM. For the same molecule, the GI50 (SF-539 CNS) was 99.7 µM, the TGI (SF-539 CNS) was greater than 100 µM and the GI50 (NCI-H23 lung) was 34.9 µM. It also gave a TGI (NCI-H23 lung) greater than 100 µM, a GI50 (NCI-H522 lung) of 43.6 µM and a TGI (NCI-H522 lung) greater than 100 µM. It also gave a GI50 (SF-295 CNS) of 13.9 µM, a TGI (SF-295 CNS) greater than 100 µM and a GI50 (M14 melanoma) of 30.6 µM. It also gave a TGI (M14 melanoma) greater than 100 µM, a GI50 (SF-268 CNS) of 71.9 µM and a TGI (SF-268 CNS) greater than 100 µM. It also gave a GI50 (NCI-H226 lung) of 0.165 µM, a TGI (NCI-H226 lung) of 0.454 µM and a GI50 (HCT-15 colon) of 32.8 µM. The TGI (HCT-15 colon) was greater than 100 µM, the GI50 (MALME-3M melanoma) was 35.5 µM and the TGI (MALME-3M melanoma) was greater than 100 µM. It also gave a GI50 (A549 NSCLC) of 15.3 µM, a TGI (A549 NSCLC) of 64.9 µM and a GI50 (OVCAR-3 ovarian) of 5.86 µM. The TGI (OVCAR-3 ovarian) was greater than 100 µM, the GI50 (HT29 colon) was 36.6 µM and the TGI (HT29 colon) was greater than 100 µM. The GI50 (UO-31 renal) was 49.7 µM, the TGI (UO-31 renal) was greater than 100 µM and the GI50 (BT-549 breast) was 21.4 µM. It also gave a TGI (BT-549 breast) greater than 80.7 µM, a GI50 (HOP-62 NSCLC) of 27.1 µM and a TGI (HOP-62 NSCLC) greater than 100 µM. For the same molecule, the GI50 (EKVX NSCLC) was 21.3 µM, the TGI (EKVX NSCLC) was greater than 89.6 µM and the GI50 (COLO 205 colon) was 4.36 µM. For the same molecule, the TGI (COLO 205 colon) was greater than 56 µM, the GI50 (PC-3 prostate) was 33.4 µM and the TGI (PC-3 prostate) was greater than 100 µM. For the same molecule, the GI50 (HOP-92 NSCLC) was 20.4 µM, the TGI (HOP-92 NSCLC) was 86.4 µM and the GI50 (HCC-2998 colon) was 40.4 µM. It also gave a TGI (HCC-2998 colon) greater than 100 µM, a GI50 (ACHN renal) of 43.9 µM and a TGI (ACHN renal) greater than 100 µM. It also gave a GI50 (SK-MEL-2 melanoma) of 40.9 µM, a TGI (SK-MEL-2 melanoma) greater than 100 µM and a GI50 (NCI-H460 lung) of 9.75 µM. For the same molecule, the TGI (NCI-H460 lung) was greater than 100 µM, the GI50 (MOLT-4 leukemia) was 20.7 µM and the TGI (MOLT-4 leukemia) was 60.1 µM. It also gave a GI50 (OVCAR-4 ovarian) of 6.43 µM, a TGI (OVCAR-4 ovarian) greater than 100 µM and a GI50 (UACC-257 melanoma) of 1.56 µM. It also gave a TGI (UACC-257 melanoma) of 4.75 µM.
